According to patent US4137311A, “Synergistic compositions and method of use” (William H. Rorer, Inc., priority 1977, dated 1979):
Where a name gives a salt, the structure may show the parent alone.

What was measured:
[1] = system: Croton-Oil Induced Inflammation To The Mouse's Ear; assay: Immediate co-administration: croton-oil induced inflammation of the mouse's ear (Table I), edema weight and percent inhibition; settings: immediate application; for Ear edema weight (± S.D.): control 16.9±3.0
Method: Mathematical determination of the synergistic effects of combinations of bis-(2-pyridyl-1-oxide) disulfide magnesium sulfate and hydrocortisone was done using a modification of the method described by Van Arman, C.
(§1) Hydrocortisone and bis-(2-pyridyl-1-oxide) disulfide magnesium sulfate were suspended or dissolved in ethanol U.S.P. (200 proof) at concentrations of 20, 40 and 80 mg/ml of bis-(2-pyridyl-1-oxide) disulfide magnesium sulfate and 0.01, 1 and 10 mg of hydrocortisone.
(§2) Four hours after application of the irritant vehicle (three hours after drug application) both ears were amputated and one circular section was exercised from each ear using a No. 4 cork borer (7 mm i.d.). The ear sections were then weighed. The increase in weight due to edema formation caused by the croton oil in the treated ear and reduction of the edema caused by treatment with bis-(2-pyridyl-1-oxide) disulfide magnesium sulfate hydrocortisone or combinations thereof was determined by subtracting the weight of the untreated right ear section from that of the treated left ear section.
Ethanol was used as the vehicle; pyridine contained in the usual irritant vehicle as described previously produces an alkaline reaction. Controls were treated with only the croton oil vehicle.
A fixed dose of 4 mg/ear of bis-(2-pyridyl-1-oxide) disulfide magnesium sulfate was co-applied with 0.01, 0.1 and 1 mg/ear of hydrocortisone.

[2] = system: Croton-Oil Induced Inflammation To The Mouse's Ear; assay: Delayed co-application to existing croton-oil induced inflammation of the mouse's ear (Table II), edema weight and percent inhibition; settings: for Ear edema weight (± S.D.): control 14.9±3.8
Method: as §1
Groups of mice treated with only the croton oil irritant solution served as controls. The right ear of mice in any group was not treated.
as §2

[3] = Solubility in ethanol U.S.P. (200 proof)
[4] = hydrocortisone alone 0.1 mg/ear
[5] = hydrocortisone alone 1.0 mg/ear
[6] = delayed application, hydrocortisone (free alcohol) alone 0.01 mg/ear
[7] = delayed application, hydrocortisone (free alcohol) alone 0.1 mg/ear
[8] = delayed application, hydrocortisone (free alcohol) alone 1.0 mg/ear
[9] = adduct alone, topical dose 4 mg/ear
[10] = delayed application, adduct alone 4 mg/ear
[11] = delayed application, adduct alone 8 mg/ear

## C[C@]12CCC(=O)C=C1CC[C@@H]1[C@@H]2[C@@H](O)C[C@@]2(C)[C@H]1CC[C@]2(O)C(=O)CO [Hydrocortisone]
[1]; hydrocortisone alone 0.01 mg/ear (Table I)
  Percent inhibition of ear edema: 23.1%
[1]; hydrocortisone alone 0.01 mg/ear
  Ear edema weight (± S.D.): 13.0 ± 3.8 mg
[1]; [4]
  Percent inhibition of ear edema: 53.3%
  Ear edema weight (± S.D.): 7.9 ± 2.3 mg
[1]; [5]
  Percent inhibition of ear edema: 67.5%
  Ear edema weight (± S.D.): 5.5 ± 2.6 mg
[1]; hydrocortisone alone, dose printed in text 0.01 mg/ear
  inhibition: 53.3%
[2]; [6]
  Percent inhibition of ear edema: 17.5%
  Ear edema weight (± S.D.): 12.3 ± 3.3 mg
[2]; [7]
  Percent inhibition of ear edema: 40.3%
  Ear edema weight (± S.D.): 8.9 ± 2.3 mg
[2]; [8]
  Percent inhibition of ear edema: 58.4%
  Ear edema weight (± S.D.): 6.2 ± 2.4 mg
[2]; delayed application, hydrocortisone alone
  dose of hydrocortisone by itself necessary to achieve a similar response (46.3%): 0.25 mg/ear
[2]; hydrocortisone by itself 0.00125 mg/ear
  expected anti-inflammatory response by extrapolation of dose-response line: little, if any, significant anti-inflammatory response

## [O-][n+]1ccccc1SSc1cccc[n+]1[O-] [bis-(2-pyridyl-1-oxide) disulfide magnesium sulfate]
[3]
  solubility in the alcohol vehicle: formed a fine suspension
[1]; [9]
  Percent inhibition of ear edema: 24.9%
  Ear edema weight (± S.D.): 12.7 ± 3.0 mg
[2]; adduct by itself 0.87 mg/ear
  expected anti-inflammatory response by extrapolation of dose-response line: little, if any, significant anti-inflammatory response
[2]; delayed application, 1 hour after croton oil, adduct alone 2 mg/ear
  Ear edema weight (± S.D.): 12.7 ± 2.4 mg
[2]; delayed application, adduct alone
  dose of adduct by itself necessary to achieve a similar response (46.3%): 17.7 mg/ear
[2]; delayed application, adduct alone 2 mg/ear
  Percent inhibition of ear edema: 14.8%
[2]; [10]
  Percent inhibition of ear edema: 23.5%
  Ear edema weight (± S.D.): 11.4 ± 2.8 mg
[2]; [11]
  Percent inhibition of ear edema: 35.6%
  Ear edema weight (± S.D.): 9.6 ± 2.2 mg
